“And” between values parts separate entries of the source, which are not always exact repeats. Equal entries are not always repeated.

The target in one test is T1, Amine oxidase [flavin-containing] A (Homo sapiens, UniProt P21397).
T1 sequence (P21397 whole entry): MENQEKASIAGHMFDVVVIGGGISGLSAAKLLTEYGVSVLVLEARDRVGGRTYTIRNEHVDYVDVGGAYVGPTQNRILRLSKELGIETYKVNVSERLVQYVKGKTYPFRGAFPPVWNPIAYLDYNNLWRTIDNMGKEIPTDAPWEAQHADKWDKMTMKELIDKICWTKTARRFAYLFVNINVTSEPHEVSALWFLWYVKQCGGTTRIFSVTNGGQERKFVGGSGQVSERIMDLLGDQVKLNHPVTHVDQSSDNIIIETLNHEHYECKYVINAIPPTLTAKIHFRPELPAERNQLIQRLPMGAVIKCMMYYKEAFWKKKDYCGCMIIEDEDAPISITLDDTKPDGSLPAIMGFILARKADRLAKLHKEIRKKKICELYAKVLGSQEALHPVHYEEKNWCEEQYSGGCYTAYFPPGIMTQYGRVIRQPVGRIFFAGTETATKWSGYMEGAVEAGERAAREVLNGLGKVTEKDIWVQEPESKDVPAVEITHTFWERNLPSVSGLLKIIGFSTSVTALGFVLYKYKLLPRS
Test: not given
As to conditions: bti-tn-5b1-4.
By IC50 is commonly meant the concentration that gives 50% inhibition. As to `CC1CCC(=NNc2nc(-c3ccc(Cl)cc3Cl)cs2)CC1` (centres undefined), the IC50 turned out to be 81.5 µM.

Another test deals with T1, Amine oxidase [flavin-containing] A. In words: biochemical.
Settings: not given
Compound `Clc1ccc(-c2csc(NN=C3CCCC3)n2)c(Cl)c1` came in with a concentration for half-maximal inhibition (IC50) of 54.5 µM.
Still for that read-out and setting: in the case of `Fc1ccc(-c2csc(NN=C3CCCC3)n2)c(F)c1` it was 2.29 µM and 2.32 µM.
On the same count and under the same terms, then `Clc1ccc(-c2csc(NN=C3CCCCCC3)n2)c(Cl)c1`, with 59.3 µM.
On the same count and under the same terms, then `Fc1ccc(-c2csc(NN=C3CCCCCC3)n2)c(F)c1`, with 7.23 µM; and `O=[N+]([O-])c1ccc(-c2csc(NN=C3CCCCCC3)n2)cc1`, with 17.9 µM.
Turning to `Fc1ccc(-c2csc(NN=C3CCCCC3)n2)c(F)c1`, the IC50 is 45.8 µM.
On the same count and under the same terms, in the case of `O=[N+]([O-])c1ccc(-c2csc(NN=C3CCCC3)n2)cc1` it was 0.344 µM; in that of `N#Cc1ccc(-c2csc(NN=C3CCCC3)n2)cc1`, 0.644 µM.

The record behind these values is ChEMBL document CHEMBL1250430, “Synthesis, semipreparative HPLC separation, biological evaluation, and 3D-QSAR of hydrazothiazole derivatives as human monoamine oxidase B inhibitors” (Bioorg Med Chem, 2010).
